These results are taken from ChEMBL document CHEMBL1811812, “Identification of a novel selective H1-antihistamine with optimized pharmacokinetic properties for clinical evaluation in the treatment of insomnia” (Bioorg Med Chem Lett, 2010).

Each structure is given as a SMILES string. Activity calls are given as the source filed them. The rule behind the calls is not given here. Where only a bound is given, the exact number is not on record here.

The test system of data set [1] is Rattus norvegicus. The experiment in a line: Effect on sleep-awake cycle in EEG/EMG rat model assessed as increase in non rapid eye movement sleep at 60 mg/kg measured up to 4 hrs relative to control. It is filed as functional.
Data set [2] relates to Rattus norvegicus. Briefly: Effect on sleep-awake cycle in EEG/EMG rat model assessed as latency to 1 min NREM sleep at 60 mg/kg measured up to 4 hrs relative to control. Type of data set: functional.
A short description of data set [3]: Elimination half life in human at 50 mg by RIA. It is filed as ADME, organism-based. As to conditions: in vivo, read-out: beta t1/2 (converted).
The species entered for data set [4] is Homo sapiens. Briefly: Toxicity in human assessed as residual effect at 1 mg to 3 mg. Type of data set: organism-based. As to conditions: in vivo.
For data set [5], the species on record is Homo sapiens. The experiment in a line: Antiinsomnic activity in human assessed as duration of sleep maintenance at 1 mg. It is filed as functional.
The species entered for data set [6] is Homo sapiens. The experiment in a line: Antiinsomnic activity in human assessed as duration of sleep maintenance at 1 mg after 8 hrs. It is filed as functional, organism-based.
A short description of data set [7]: Clearance in EEG/EMG rat model. To be noted: in vivo.
A short description of data set [8]: Dissociation constant, pKa of the compound.
Data set [9] in a line: AUC (0 to t) in human at […], po. It is filed as ADME, organism-based. More on the design: route oral. As to conditions: plasma.
Data set [10] can be described thus: Systemic clearance in human at […]. Type of data set: ADME, organism-based. To be noted: in vivo.
A short description of data set [11]: Half life in human at […], po. To be noted: in vivo. Type of data set: ADME, organism-based. Set-up: route oral.
Data set [12] is described as follows: Plasma concentration in human at […] after 1 hr. Type of data set: ADME, organism-based.
For data set [13], the system named is Rattus norvegicus. Briefly: Effect on sleep-awake cycle in EEG/EMG rat model assessed as increase in non rapid eye movement sleep at 30 mg/kg measured up to 4 hrs relative to control. It is filed as functional.
Data set [14] has as its system Rattus norvegicus. The experiment in a line: Effect on sleep-awake cycle in EEG/EMG rat model assessed as latency to 1 min NREM sleep at 30 mg/kg measured up to 4 hrs relative to control. It is filed as functional.
A further data set concerns the target Cytochrome P450 3A4 (Homo sapiens, UniProt P08684).
Data set [15] is described as follows: clinical. To be noted: human, plasma, 0.1 mg/kg.
Description: AUC (0 to t) in human at 0.1 mg/kg
A short description of data set [16]: clinical. To be noted: human, in vivo, po, 0.1 mg/kg.
Description: Half life in human at 0.1 mg/kg, po and iv administered as single dose
Data set [17] deals with Rattus norvegicus. The experiment in a line: Effect on sleep-awake cycle in EEG/EMG rat model assessed as increase in non rapid eye movement sleep at 3 mg/kg measured up to 4 hrs relative to control. Type of data set: functional.
The subject of data set [18] is Rattus norvegicus. The experiment in a line: Effect on sleep-awake cycle in EEG/EMG rat model assessed as latency to 1 min NREM sleep at 3 mg/kg measured up to 4 hrs relative to control. It is filed as functional.
Data set [19] is described as follows: Inhibition of H2 receptor.
The species named for data set [20] is Homo sapiens. Briefly: Selectivity for histamine H1 receptor over histamine H2 receptor in human conjuctival mast cells.

The term clearance denotes the rate of elimination divided by the concentration. Usually pKa stands for the pH at which an ionisable group is half protonated. Lower therefore signals a stronger acid or weaker base. For orientation: AUC(0-t) means exposure summed from dosing to a finite time, without extrapolation to infinity. Low readings indicate less exposure, high ones more exposure. A word on the IC50: it is the concentration that gives 50% inhibition. Broadly, the Ki is a dissociation constant, usually derived from enzyme kinetics or from competition with a known ligand. High values mean lower affinity, low ones higher affinity.

Cytochrome P450 3A4, sequence (P08684 whole entry): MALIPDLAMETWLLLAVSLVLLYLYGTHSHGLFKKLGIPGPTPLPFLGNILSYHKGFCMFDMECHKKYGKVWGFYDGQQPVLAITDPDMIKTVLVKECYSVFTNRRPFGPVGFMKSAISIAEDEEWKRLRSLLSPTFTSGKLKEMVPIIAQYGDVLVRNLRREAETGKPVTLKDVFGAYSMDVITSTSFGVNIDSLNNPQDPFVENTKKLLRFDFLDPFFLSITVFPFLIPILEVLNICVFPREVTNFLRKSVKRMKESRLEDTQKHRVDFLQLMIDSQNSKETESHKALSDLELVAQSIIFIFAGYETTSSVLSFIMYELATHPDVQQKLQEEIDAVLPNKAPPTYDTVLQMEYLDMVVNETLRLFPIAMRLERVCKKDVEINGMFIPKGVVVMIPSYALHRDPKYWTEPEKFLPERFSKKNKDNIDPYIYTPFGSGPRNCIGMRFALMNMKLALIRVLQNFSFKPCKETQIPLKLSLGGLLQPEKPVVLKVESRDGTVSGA

Take `C[C@H](C1=C(CCN(C)C)Cc2ccccc21)c1cnccn1`: the Activity in the data set on Rattus norvegicus [1] was determined as 145%; with Rattus norvegicus [2] it was 109%.
On to `CN(C)CCC=C1c2ccccc2COc2ccccc21` [DOXEPIN], for which the half-life in data set [3] was 18 h. In the data set filed under Homo sapiens [4], the Activity entry is given as “Non-toxic”. Moreover, the Time in the data set listed under Homo sapiens [5] is 8 h. In the data set filed under Homo sapiens [6], the result was inactive.
On to `C[C@@H](c1ccccn1)c1c(CCN(C)C)sc2ccccc12`, for which the clearance in data set [7] was over 68 mL/min/kg; in data set [10], 3.8 mL/min/kg. This compound also yielded a pKa in data set [8] of 8.5. Besides, the area under the curve AUC(0-t) was 1.9 ng·h/mL in data set [9] and 2.8 ng·h/mL in “clinical [15]”. In addition, the figures for the half-life (in data set [11]; in the data set “clinical [16]”) were 3.6 h and 6.8 h, respectively. In data set [12], this compound gave a concentration at 1 h of 4 ng/mL. For the same compound, the Activity worked out at 142% in the data set with Rattus norvegicus [13] and 124% in the data set on Rattus norvegicus [14]. Further, the IC50 against Cytochrome P450 3A4 was over 10000 nM.
For `Cc1ccc(-c2nc3ccc(C)cn3c2CC(=O)N(C)C)cc1` [ZOLPIDEM], the Activity worked out at 205% with Rattus norvegicus [13] and 17% in the data set on Rattus norvegicus [14].
Consider `CN(C)CCC1=C(Cc2cccnn2)c2ccc(F)cc2C1`, for which the Activity in the data set with Rattus norvegicus [17] worked out at 136%; in the data set on Rattus norvegicus [18], 106%.
Compound `COc1nccnc1[C@H](C)C1=C(CCN(C)C)Cc2cc(F)ccc21` returned a Ki in data set [19] of 4.5 nM.
Regarding `C[C@H](C1=C(CCN(C)C)Cc2ccccc21)c1ccccn1`, the Selectivity ratio in the data set filed under Homo sapiens [20] is 100.
